Experimental data: patent US20230212571A1, “COMPOSITIONS AND METHODS FOR DELIVERING POLYNUCLEOTIDES” (NeOnc Technologies, Inc., priority 2020, published 2023)

Key:
BEC [1] = experiment: Western blot of control BEC lysates; format: cell-based, human; settings: untreated vs scramble vs miR-18a
Source text: Human surgical specimens were obtained following written informed consent from patients in accordance with Declaration of Helsinki guidelines and the Institutional Review Board (HS-04B053), at Keck School of Medicine, USC. AVM-BECs were isolated from brain tissues of patients who underwent microsurgical AVM resection. Control BECs were isolated from the structurally normal […] of patients who underwent temporal lobectomy for intractable epilepsy. Endothelial cell (EC) isolation and culture were described^5,9. (Stapleton C J, Armstrong D L, Zidovetzki R, Liu C Y, Giannotta S L, Hofman F M. Thrombospondin-1 modulates the angiogenic phenotype of human cerebral arteriovenous malformation endothelial cells. Neurosurgery. 2011; 68(5):1342-1353) (Ferreira R, Santos T, Amar A, et al. Argonaute-2 promotes miR-18a entry in human brain endothelial cells. J Am Heart Assoc. 2014; 3(3):e000968) ECs were only used between passages 3-5. Experiments were performed under shear flow conditions (12 dyn/cm^2) to reproduce arterial flow^6. […]
The levels of angiogenesis-related proteins were analyzed using the Proteome Profiler™ Human Angiogenesis Array kit (R&D Systems) following the manufacturer's instructions. […] Membranes were visualized and quantified using a C-Digit Blot scanner (Li-Cor) or a iBright CL1000 (Thermo Fisher Scientific).

BEC [2] = experiment: Invasion assay, Matrigel-coated Boyden chamber, control BEC; format: cell-based, human; settings: P>0.9999
Source text: The chemoinvasion assay was described^14. (Marín-Ramos N I, Thein T Z, Cho H-Y, et al. NEO212 inhibits migration and invasion of glioma stem cells. Mol Cancer Ther. 2018; 17(3):625-637). Pictures were captured using an Eclipse 80i microscope (Nikon), and cells counted with ImageJ Software (NIH).

[3] = test system: Mgp^−/− mouse model of AVM; experiment: Brain appearance and immunostaining of brain sections; format: in vivo; settings: Mgp^−/− mice, IN 2-weeks
Method: Immunostaining was performed as previously described^15. ([…], Golden […], et al. Glioma-associated endothelial cells are chemoresistant to temozolomide. J Neurooncol. 2009; 95(1):13-22). Primary antibodies used were rabbit anti-MMP2, mouse anti-MMP9 (1:150, Abgent), rabbit anti-phospho-Smad1/5 ([…]/465) (1:50, Abgent), rabbit anti-BMP4, rabbit anti-PAI-1 (1:50, Proteintech), rabbit anti-VEGF (1:50, Santa Cruz Biotechnology), rabbit anti-HIF-1α (1:50, Cell Signaling Technology), and rabbit anti-phospho-Smad3 ([…]/425) (1:50, GeneTex). Secondary antibodies used were biotinylated anti-rabbit and biotinylated anti-mouse (1:300, Vector Laboratories), accordingly. Pictures were taken in an Eclipse 80i microscope (Nikon). Images shown are representative of three-five independent experiments. In vivo efficacy studies were performed using 3-week-old Mgp^+/- C57BL/6 mice^16,17 (Yao Y, Jumabay M, Wang A, Boström K I. Matrix Gla protein deficiency causes arteriovenous malformations in mice. J Clin Invest. 2011; 121(8):2993-3004) (Yao Y, Yao […], et al. Reducing Jagged 1 and 2 levels prevents cerebral arteriovenous malformations in matrix Gla protein deficiency. Proc Nat Acad Sci USA. 2013; 110(47):19071-19076). provided by Dr. Yucheng Yao (UCLA, Los Angeles) and mated to obtain the appropriate genotypes. Only about 10-15% of each litter were born with the Mgp^-/- genotype, and among those, only about 45% survived until the end of the treatment and/or the imaging of the brain vasculature, due to the extreme severity of the disease in this mouse model. These animals not only suffer AVMs in the brain, but all major organs are also affected and dysfunctional. Thus, […] might die due to several causes, including stroke, severe lung inflammation that causes respiratory failure-especially when anesthesia is used-, organ failure due to liver and/or spleen malfunction, heart failure, etc., drastically limiting the number of the Mgp^-/- mice available for the CTA studies. […] Treatment with 0.08 nmol/mouse of miR-18a or scramble microRNA was administered IN daily for 2-weeks. 2.5 μL/nostril were delivered in RNase-free water. Ultra-high-resolution in vivo computed tomography angiography (CTA) was performed in mice for 3D imaging of whole brain vascular architecture^18, ([…], Rendon D, et al. Ultra-High-Resolution In vivo Computed Tomography Imaging of Mouse Cerebrovasculature Using a Long Circulating Blood Pool Contrast Agent. Scientific reports. 2015; 5:10178) as described in Data. The vascular data was quantified using ImageJ. Regions of interest encompassing the Circle of Willis (CoW) and the azygous of the anterior cerebral artery (AzACA) and its branches were selected in CT images using thick slab maximum intensity projection (MIP) or 3D volume rendering. The images were converted to 8-bit grayscale and thresholded to highlight the vasculature containing pixels. The pixels were analyzed as particles and normalized to results from the wildtype mice (WT, Mgp^+/+). Immediately after imaging, mice were euthanized, and brains were frozen in Clear Frozen Section Compound (VWR) and stored at -80° C. Blood was collected for complete blood count (Antech). The lungs, livers, spleens, femurs, and kidneys were harvested and fixed in 10% formalin. Photographs of the stained sections were captured using an Eclipse 80i microscope (Nikon).

Substance: hsa-miR-18a-5p (UAGGUGCAUCUAGUGCAGAUAG; chemistry not given here; listed as Homo sapiens) [small non-coding RNA molecule involved in post-transcriptional regulation of gene expression; Dharmacon]
- levels of bFGF, ET-1, PAI-1 and VEGF (western blot) (BEC [1]): remained unaltered
- invasiveness (BEC [2]): without affecting control BEC
- activation (phosphorylation) of Smad1/5 in brain sections (IHC) [3]: decreased
- expression of BMP4 in brain sections (IHC) [3]: decreased
- expression of HIF-1α in brain sections (IHC) [3]: decreased
- expression of PAI-1 in brain sections (IHC) [3]: decreased
- expression of VEGF in brain sections (IHC) [3]: decreased
- signs of fresh hemorrhage and presence of abnormally enlarged blood vessels in the brain [3]: reduced
